One assay deals with T1, KRAS-G12D (Homo sapiens, UniProt P01116, G12D).
T1 construct: endogenous in cells; host or cells: A-427 (ATCC), AGS, AsPc-1, Panc 04.03
Nature of the assay: KRAS-G12D degradation assay (Western Blot), A-427 cells. The assay is classed as cell-based. The note with it: A427 cells, 24 h; for Dmax: A-427. The protocol:
The degradation effects of the compounds on KRAS-G12D were investigated on KRAS G12D mutant human lung cancer cell A-427 (ATCC), KRAS G12D mutant human gastric cancer cell AGS, KRAS G12D mutant human metastatic pancreatic cancer cell AsPc-1, and KRAS G12D mutant human pancreatic adenocarcinoma cell Panc 04.03. The specific procedures were as follows: 0.95 mL of cells were seeded into each well of a 24-well cell culture plate to achieve a cell density of 5×10^5 cells/well; and the cell plate was incubated in an incubator at 37° C. with 5% CO2 overnight. Then 50 μL of the compound solution after dilution was added to each of the wells with the corresponding cells, so that the final concentration of the compound was in a range of 0.03-3000 nM. The final concentration of DMSO was 0.25%. After the compounds were added, the cell plate was incubated in the incubator at 37° C. with 5% CO2 for 24 h. The culture medium in the 24-well cell culture plate was removed, and the plate was washed twice with 1×PBS (KeyGEN). 120 μL of RIPA (strong) lysis buffer (Beyotime) supplemented with 1 mM phenylmethylsulfonyl fluoride, a protease inhibitor mixture (Beyotime), and a protease phosphatase inhibitor mixture (Beyotime) was added to lyse adherent A-427 cells at the bottom of the cell culture plate. After the plate was left to stand on ice for 30 min, the protein lysate in each well was transferred to a 1.5 mL centrifuge tube and centrifuged at 15000 g for 20 min at 4° C. The cell lysate supernatants after centrifugation were cryopreserved in a refrigerator at −80° C. for later use.
After the samples of the cell lysate supernatants that had been prepared were thawed from the refrigerator at −80° C., the total protein concentrations of the cell lysates were determined using a BCA protein quantification kit (Tiangen). The total protein concentrations of the samples were then adjusted to 0.5 μg/μL with PBS and 5×SDS-PAGE protein loading buffer (Beyotime), and the samples were incubated in a water bath at 100° C. for 15 min. The samples were then incubated in an ice bath for 5 min and centrifuged at 14000 g for 1 min at 4° C., and the supernatants were mixed well as loading samples for the Western Blot assay. The samples were loaded into wells of a 10% precast gel (KeyGEN) with a loading volume of 10 μL (total protein: 5 μg), a sufficient Tris-MOPS-SDS running buffer (Adamas) was added, and then electrophoresis was performed at a constant voltage of 120 V for 55 min. After the electrophoresis, the proteins on the gel were transferred to PVDF membranes at a constant current of 250 mA for 55 min. After the membrane transfer, the PVDF membranes were incubated in 1× Quick Block blocking buffer (Beyotime) at room temperature for 30 min. After the blocking, the PVDF membranes were separately incubated at 4° C. overnight with the KRAS antibody (Abcam) diluted in a ratio of 1:1000 and the […] antibody (Abcam) diluted in a ratio of 1:2000 in 5% BSA as the diluent, and then washed with 1×TBST buffer (2.4 g of Tris, 8.8 g of NaCl, 1.5 mL of Tween 20, with pH adjusted to 7.4, with the volume brought to 1 L) 3 times for 10 min/time. The membranes were incubated with a secondary antibody (Abcam) diluted in 5% BSA at room temperature for 2 h, and then washed with 1×TBST buffer 3 times for 10 min/time. Finally, the membranes were incubated with Clarity Western ECL Substrate (BIO-RAD) for 5 min for luminescence and color development, and a ChemiScope 6200 Touch chemiluminescence imaging system (Clinx) was used for color development and protein mapping. Gray value analysis of the protein maps was performed using the chemiluminescence analysis software (Clinx). The gray correction value for each sample was calculated using the formula: gray correction value=(gray value of target protein/gray value of corresponding internal reference)×10^3. Then degradation rates were calculated by comparison with the gray correction value of the control group. […]
In general terms: A western blot detects proteins with antibodies after separation by electrophoresis.

Assay [1] deals with KRAS G12D mutant human gastric cancer cell AGS. Nature of the assay: 3D cell proliferation inhibition assay, AGS. Type of assay: cell-based. The note with it: 168 h, 7 days, CTG, numeric values. An excerpt:
The inhibitory effects of the compounds on 3D cell proliferation were investigated on KRAS G12D mutant human lung cancer cell A427, KRAS G12D mutant human gastric cancer cell AGS, KRAS G12D mutant human metastatic pancreatic cancer cell AsPc-1, KRAS G12D mutant human pancreatic cancer cell Panc 04.03, KRAS G12D mutant human pancreatic cancer cell HPAC, KRAS G12V mutant human lung squamous cell carcinoma cell SW900, and KRAS WT human gastric cancer cell MKN1. The specific procedures were as follows:
10 μL of each compound solution diluted in a gradient was added to corresponding wells of a 96-well low-adsorption microplate (PerkinElmer), so that the final concentrations of the test compounds in the reaction system were in a range of 10000-0.026 nM. The final concentration of DMSO was 0.2%. Then 90 µL of cells were correspondingly seeded into each well to achieve a cell density of 5×10^2 cells/well (the cell density of SW900 was 5×10^1 cells/well, and the cell density of MKN1 was 1×10^3 cells/well). In addition to test wells for the test compounds, both a DMSO control well and a medium control well were set, with the DMSO control well containing DMSO and cells and the medium well containing only a medium. After the sample loading, the 96-well low-adsorption microplate was incubated in an incubator at 37° C. with 5% carbon dioxide for 7 days. After 7 days, the microplate was taken out, and 100 μL of CTG reagent (Promega) was added to each well. The plate was incubated at room temperature for 60 min and read on a microplate reader EnVision by the chemiluminescence program. The inhibition rates of the compounds at each concentration were calculated using the formula for the percentage inhibition of cell proliferation: inhibition rate %=(mean value of DMSO control group−single concentration reading value of compound)/(mean value of DMSO control group−mean value of medium control group)×100. Then non-linear curve fittings for logarithmic concentration-inhibition rate were performed by GraphPad Prism 8, and the IC50 values of the compounds were obtained (Table 5).

SMILES strings stand for the structures.

T1 sequence (P01116 1-188 isoform P01116-2 G12D): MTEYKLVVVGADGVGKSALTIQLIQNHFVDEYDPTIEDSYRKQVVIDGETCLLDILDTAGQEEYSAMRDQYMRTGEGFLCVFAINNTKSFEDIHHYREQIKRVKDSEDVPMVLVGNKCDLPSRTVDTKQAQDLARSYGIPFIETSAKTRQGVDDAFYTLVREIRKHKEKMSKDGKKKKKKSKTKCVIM

In the case of `C#Cc1c(F)ccc2cc(O)cc(-c3ncc4c(N5CC6CCC(C5)N6)nc(OCC5(CN6CC(CCN7CCC8(CC7)CCN(C(=O)c7ccc(OC)c(N9CCC(=O)NC9=O)c7)CC8)C6)CC5)nc4c3F)c12` [Example 41, 1-(5-(9-(2-(1-((1-(((4-(3,8-diazabicyclo[3.2.1]octan-3-yl)-7-(8-ethynyl-7-fluoro-3-hydroxynaphthalen-1-yl)-8-fluoropyrido[4,3-d]pyrimidin-2-yl)oxy)methyl)cyclopropyl)methyl)azetidin-3-yl)ethyl)-3,9-diazaspiro[5.5]undecane-3-carbonyl)-2-methoxyphenyl)dihydropyrimidine-2,4(1H,3H)-dione], the DC50 on KRAS-G12D (class symbols) fell in the range of 1000 to 10000 nM. Turning to `C#Cc1c(F)ccc2cc(O)cc(-c3ncc4c(N5CC6CCC(C5)N6)nc(OCC5(CN6CCN(CCC7CC8(CCN(C(=O)c9ccc(OC)c(N%10CCC(=O)NC%10=O)c9)CC8)C7)CC6)CC5)nc4c3F)c12` [Example 43, 1-(5-(2-(2-(4-((1-(((4-(3,8-diazabicyclo[3.2.1]octan-3-yl)-7-(8-ethynyl-7-fluoro-3-hydroxynaphthalen-1-yl)-8-fluoropyrido[4,3-d]pyrimidin-2-yl)oxy)methyl)cyclopropyl)methyl)piperazin-1-yl)ethyl)-7-azaspiro[3.5]nonane-7-carbonyl)-2-methoxyphenyl)dihydropyrimidine-2,4(1H,3H)-dione], at KRAS-G12D (class symbols), the DC50 was not above 50 nM and the Dmax was in the range of 50 to 80%. Turning to `C#Cc1c(F)ccc2cc(O)cc(-c3ncc4c(N5CC6CCC(C5)N6)nc(NCC5(CN6CCN(CC7CCC8(CC7)CCN(C(=O)c7ccc(Cl)c(N9CCC(=O)NC9=O)c7)CC8)CC6)CC5)nc4c3F)c12` [Example 46, 1-(5-(9-((4-((1-(((4-(3,8-diazabicyclo[3.2.1]octan-3-yl)-7-(8-ethynyl-7-fluoro-3-hydroxynaphthalen-1-yl)-8-fluoropyrido[4,3-d]pyrimidin-2-yl)amino)methyl)cyclopropyl)methyl)piperazin-1-yl)methyl)-3-azaspiro[5.5]undecane-3-carbonyl)-2-chlorophenyl)dihydropyrimidine-2,4(1H,3H)-dione], on KRAS-G12D (class symbols), the DC50 is not above 50 nM and the Dmax was in the range of 80 to 100%. `C#Cc1c(F)ccc2cc(O)cc(-c3ncc4c(N5CC6CCC(C5)N6)nc(OCC5CCN(CCCC6CCC7(CC6)CCN(C(=O)c6ccc(Cl)c(N8CCC(=O)NC8=O)c6)CC7)CC5)nc4c3F)c12` [Example 68, 1-(5-(9-(3-(4-(((4-(3,8-diazabicyclo[3.2.1]octan-3-yl)-7-(8-ethynyl-7-fluoro-3-hydroxynaphthalen-1-yl)-8-fluoropyrido[4,3-d]pyrimidin-2-yl)oxy)methyl)piperidin-1-yl)propyl)-3-azaspiro[5.5]undecane-3-carbonyl)-2-chlorophenyl)dihydropyrimidine-2,4(1H,3H)-dione] came in with an IC50 in assay [1] of 24.8 nM. On KRAS-G12D (numeric values), `CCc1cccc2cc(O)cc(-c3ccc4c(N5CC6CCC(C5)N6)nc(OCC5(CN6CCN(CC7CCC8(CC7)CCN(C(=O)c7ccc(OC)c(N9CCC(=O)NC9=O)c7)CC8)CC6)CC5)nc4c3F)c12` [Example 83, 1-(5-(9-((4-((1-(((4-(3,8-diazabicyclo[3.2.1]octan-3-yl)-7-(8-ethyl-3-hydroxynaphthalen-1-yl)-8-fluoroquinazolin-2-yl)oxy)methyl)cyclopropyl)methyl)piperazin-1-yl)methyl)-3-azaspiro[5.5]undecane-3-carbonyl)-2-methoxyphenyl)dihydropyrimidine-2,4(1H,3H)-dione] registered a DC50 of 33.9 nM and a Dmax of 87.2%. In assay [1], `C#Cc1c(F)ccc2cc(O)cc(-c3ncc4c(N5C[C@@H]6C[C@H]5CN6)nc(OCC5(CN6CCN(CC7CCC8(CC7)CCN(C(=O)c7ccc(C)c(N9CCC(=O)NC9=O)c7)CC8)CC6)CC5)nc4c3F)c12` [Example 86, 1-(5-(9-((4-((1-(((4-((1S,4S)-2,5-diazabicyclo[2.2.1]heptan-2-yl)-7-(8-ethynyl-7-fluoro-3-hydroxynaphthalen-1-yl)-8-fluoropyrido[4,3-d]pyrimidin-2-yl)oxy)methyl)cyclopropyl)methyl)piperazin-1-yl)methyl)-3-azaspiro[5.5]undecane-3-carbonyl)-2-methylphenyl)dihydropyrimidine-2,4(1H,3H)-dione] showed an IC50 of 97.5 nM. Compound `C#Cc1c(F)ccc2cc(O)cc(-c3ncc4c(N5CC6CCC(C5)N6)nc(OCC5(CN6CC7CC(C6)N7CC6CCC7(CC6)CCN(C(=O)c6ccc(Cl)c(N8CCC(=O)NC8=O)c6)CC7)CC5)nc4c3F)c12` [Example 87, 1-(5-(9-((3-((1-(((4-(3,8-diazabicyclo[3.2.1]octan-3-yl)-7-(8-ethynyl-7-fluoro-3-hydroxynaphthalen-1-yl)-8-fluoropyrido[4,3-d]pyrimidin-2-yl)oxy)methyl)cyclopropyl)methyl)-3,6-diazabicyclo[3.1.1]heptan-6-yl)methyl)-3-azaspiro[5.5]undecane-3-carbonyl)-2-chlorophenyl)dihydropyrimidine-2,4(1H,3H)-dione] showed an IC50 in assay [1] of 606 nM. Against the preceding compound, the IC50 is about 6.2-fold higher. On to `CCc1cccc2cc(O)cc(-c3ncc4c(N5CCC6CCC(C5)N6)nc(OCC5(CN6CCN(CC7CCC8(CC7)CCN(C(=O)c7ccc(OC)c(N9CCC(=O)NC9=O)c7)CC8)CC6)CC5)nc4c3F)c12` (stereo not drawn) [Example 88, 1-(5-(9-((4-((1-(((4-(3,9-diazabicyclo[4.2.1]nonan-3-yl)-7-(8-ethyl-3-hydroxynaphthalen-1-yl)-8-fluoropyrido[4,3-d]pyrimidin-2-yl)oxy)methyl)cyclopropyl)methyl)piperazin-1-yl)methyl)-3-azaspiro[5.5]undecane-3-carbonyl)-2-methoxyphenyl)dihydropyrimidine-2,4(1H,3H)-dione], for which, at KRAS-G12D (numeric values), half-maximal degradation (DC50) was put at 0.65 nM and the Dmax was found to be 89.5%.

Usually DC50 stands for the concentration giving 50% degradation. A low value points to degradation at low concentration. The term Dmax denotes the largest share of the target that was removed. High values mean deep degradation, low ones shallow degradation. By IC50 is commonly meant the concentration at which inhibition is half-maximal. Read a low IC50 as greater potency in that assay.

(Values after patent US20260166159A1, “KRAS G12D DEGRADATION AGENT, AND PREPARATION METHOD AND USE THEREFOR” (LEADINGTAC PHARMACEUTICAL (SHAOXING) CO., LTD., priority 2022, published 2026).)
